Experimental data taken from patent US20240391936A1, “TETRAHYDROTHIENO PYRIDINE DERIVATIVES AS DDRS INHIBITORS” (CHIESI FARMACEUTICI S.P.A., priority 2021, published 2024).

Legend:
DDR1 [1] = target: T1, DDR1 (Homo sapiens, UniProt Q08345); assay: DDR1 cell based assay (PathHunter U2OS DDR1 assay); design: host or cells: U2OS-DDR1 (PathHunter); conditions: U2OS-DDR1 cells, bovine Type II Collagen 20 μg/ml
Experimental: The inhibition of DDR1 receptor activation by compounds was evaluated by PathHunter® U2OS DDR1 assay (Eurofins DiscoverX), according to the manufacturer's instructions. Briefly, U2OS-DDR1 cells were seeded in white 384-well plates at a density of 5000 cells/well and incubated for 2 hours at 37° C. and 5% CO2. Cells were then treated with compounds at different concentrations and incubated for 30 minutes, before stimulation with bovine Type II Collagen 20 μg/ml and incubation overnight at 37° C. and 5% CO2. PathHunter Detection Reagents were prepared according to the protocol provided by DiscoverX and 20 μl/well of this mix were added to each well. After incubating the plates for 1 hour at room temperature in the dark, luminescence signal was acquired with a plate reader. Raw data were normalized to vehicle control (0% for normalization) and positive control (100% for normalization; cells treated with 20 μg/ml collagen II) and IC50 parameters were calculated in GraphPad Prism 8.0 software, using sigmoidal dose-response curve fitting with variable slope.

DDR2 = target: T2, DDR2 (Homo sapiens, UniProt Q16832); assay: DDR2 binding assay (LanthaScreen Europium Kinase Binding assay); design: purchased Life Technologies; conditions: binding assay, 5 nM DDR2, 10 nM Kinase Tracer 178; Ki from IC50 by Cheng-Prusoff; read-out: Ki DDR2
T2 sequence (Q16832 22-855): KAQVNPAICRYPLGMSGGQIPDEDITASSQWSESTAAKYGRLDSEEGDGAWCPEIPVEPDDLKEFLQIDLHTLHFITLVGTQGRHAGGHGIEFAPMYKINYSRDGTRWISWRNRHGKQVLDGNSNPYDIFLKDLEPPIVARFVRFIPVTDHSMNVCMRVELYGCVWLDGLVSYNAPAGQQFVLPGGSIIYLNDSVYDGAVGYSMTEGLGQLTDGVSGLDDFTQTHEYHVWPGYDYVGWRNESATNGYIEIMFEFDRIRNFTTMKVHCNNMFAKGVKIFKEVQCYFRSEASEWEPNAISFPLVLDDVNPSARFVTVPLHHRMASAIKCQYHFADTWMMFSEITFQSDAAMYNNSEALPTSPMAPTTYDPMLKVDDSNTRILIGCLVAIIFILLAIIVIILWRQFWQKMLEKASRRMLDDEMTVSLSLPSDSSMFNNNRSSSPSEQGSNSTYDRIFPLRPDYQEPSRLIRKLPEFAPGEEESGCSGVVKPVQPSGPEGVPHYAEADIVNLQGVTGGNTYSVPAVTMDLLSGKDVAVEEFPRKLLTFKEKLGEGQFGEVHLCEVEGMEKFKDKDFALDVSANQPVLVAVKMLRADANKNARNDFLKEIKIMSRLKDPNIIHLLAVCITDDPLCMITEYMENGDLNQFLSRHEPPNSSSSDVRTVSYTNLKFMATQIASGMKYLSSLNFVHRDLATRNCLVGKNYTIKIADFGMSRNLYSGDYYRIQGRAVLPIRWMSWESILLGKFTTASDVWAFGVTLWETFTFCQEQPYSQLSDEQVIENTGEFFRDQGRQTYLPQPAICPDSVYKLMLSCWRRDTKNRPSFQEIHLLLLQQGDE
Experimental: (§1) DDR1 and DDR2 binding assays were performed using Life Technologies LanthaScreen™ Europium Kinase Binding assay. The compounds were incubated with 5 nM DDR1 (Carna Biosciences) or 5 nM DDR2 (Life Technologies) for 1 hour at room temperature in white 384-well OptiPlate (PerkinElmer), containing 20 nM or 10 nM Kinase Tracer 178 respectively and 2 nM Europium labelled anti-GST antibody (Life Technologies) in assay buffer (50 mM HEPES pH 7.5, 10 mM MgCl2, 1 mM EGTA and 0.01% BRIJ35).
(§2) The ratio of fluorescence emission 665 nm/615 nm after excitation at 340 nm was obtained using the Tecan Spark 20M plate reader. IC50 values were determined in GraphPad Prism 7.0 software, using 4 parameter model: log(inhibitor) vs. response. IC50 values were converted in Ki using the Cheng-Prusoff equation

DDR1 [2] = target: T1, DDR1; assay: DDR1 binding assay (LanthaScreen Europium Kinase Binding assay); design: purchased Carna Biosciences; conditions: binding assay, 5 nM DDR1, 20 nM Kinase Tracer 178; Ki from IC50 by Cheng-Prusoff; read-out: Ki DDR1
Experimental: as §1, §2

T1 sequence (Q08345 19-913): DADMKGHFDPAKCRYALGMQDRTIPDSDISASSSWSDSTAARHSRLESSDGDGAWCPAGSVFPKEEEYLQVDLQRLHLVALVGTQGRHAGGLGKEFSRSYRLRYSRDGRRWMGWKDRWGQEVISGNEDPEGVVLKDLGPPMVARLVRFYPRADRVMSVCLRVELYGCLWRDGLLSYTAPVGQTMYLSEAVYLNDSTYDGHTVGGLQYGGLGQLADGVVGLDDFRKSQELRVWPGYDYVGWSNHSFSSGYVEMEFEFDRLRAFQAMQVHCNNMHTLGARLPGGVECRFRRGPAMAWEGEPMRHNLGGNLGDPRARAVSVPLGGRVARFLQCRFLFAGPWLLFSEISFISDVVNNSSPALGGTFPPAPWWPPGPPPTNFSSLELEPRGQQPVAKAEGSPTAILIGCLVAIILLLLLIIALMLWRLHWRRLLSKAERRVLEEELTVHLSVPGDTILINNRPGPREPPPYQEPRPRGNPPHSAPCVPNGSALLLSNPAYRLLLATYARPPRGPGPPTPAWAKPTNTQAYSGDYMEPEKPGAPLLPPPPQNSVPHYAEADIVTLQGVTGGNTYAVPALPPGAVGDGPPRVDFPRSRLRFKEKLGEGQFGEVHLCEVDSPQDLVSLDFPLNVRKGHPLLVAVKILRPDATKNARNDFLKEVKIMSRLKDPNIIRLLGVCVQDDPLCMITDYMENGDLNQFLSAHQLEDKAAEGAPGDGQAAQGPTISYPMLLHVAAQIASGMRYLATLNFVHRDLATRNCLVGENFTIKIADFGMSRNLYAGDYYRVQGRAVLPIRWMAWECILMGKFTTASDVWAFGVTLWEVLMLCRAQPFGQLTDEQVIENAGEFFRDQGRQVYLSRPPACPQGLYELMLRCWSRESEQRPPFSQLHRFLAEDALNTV

| SMILES | IC50 (DDR1 [1]) [nM] | Ki (DDR2) [nM] | Ki (DDR1 [2]) [nM] |
| --- | --- | --- | --- |
| O=C(Nc1ccc(CN2CCCC2)c(C(F)(F)F)c1)c1csc2c1CCN(C(=O)c1cnc3ccccn13)C2 [Example 22, 6-(imidazo[1,2-a]pyridine-3-carbonyl)-N-(4-(pyrrolidin-1-ylmethyl)-3-(trifluoromethyl)phenyl)-4,5,6,7-tetrahydrothieno[2,3-c]pyridine-3-carboxamide] | 50 to 80 | < 25 | < 25 |
| CN(C)CCOc1cc(NC(=O)c2csc3c2CCN(C(=O)c2cnc4ccccn24)C3)cc(C(F)(F)F)c1 [Example 25, N-(3-(2-(dimethylamino)ethoxy)-5-(trifluoromethyl)phenyl)-6-(imidazo[1,2-a]pyridine-3-carbonyl)-4,5,6,7-tetrahydrothieno[2,3-c]pyridine-3-carboxamide] | 25 to 50 | < 25 | < 25 |
| O=C(Nc1cc(OCCN2CCCC2)cc(C(F)(F)F)c1)c1csc2c1CCN(C(=O)c1cnc3ccccn13)C2 [Example 26, 6-(imidazo[1,2-a]pyridine-3-carbonyl)-N-(3-(2-(pyrrolidin-1-yl)ethoxy)-5-(trifluoromethyl)phenyl)-4,5,6,7-tetrahydrothieno[2,3-c]pyridine-3-carboxamide] | 25 to 50 | < 25 | < 25 |
| CN(C)Cc1ccc(NC(=O)c2csc3c2CCN(C(=O)c2cnc4ccccn24)C3)cc1C(F)(F)F [Example 27] | 25 to 50 | < 25 | < 25 |
| O=C(Nc1cncc(C(F)(F)F)c1)c1csc2c1CCN(C(=O)c1cnc3ccccn13)C2 [Example 28, 6-(imidazo[1,2-a]pyridine-3-carbonyl)-N-(5-(trifluoromethyl)pyridin-3-yl)-4,5,6,7-tetrahydrothieno[2,3-c]pyridine-3-carboxamide] | < 25 | < 25 | < 25 |
| O=C(Nc1cc(C(F)(F)F)ccn1)c1csc2c1CCN(C(=O)c1cnc3ccccn13)C2 [Example 29, 6-(imidazo[1,2-a]pyridine-3-carbonyl)-N-(4-(trifluoromethyl)pyridin-2-yl)-4,5,6,7-tetrahydrothieno[2,3-c]pyridine-3-carboxamide] | 50 to 80 | < 25 | < 25 |

Continued, values first:

| IC50 (DDR1 [1]) [nM] | Ki (DDR2) [nM] | Ki (DDR1 [2]) [nM] | SMILES |
| --- | --- | --- | --- |
| 50 to 80 | < 25 | < 25 | O=C(Nc1nccc(C(F)(F)F)n1)c1csc2c1CCN(C(=O)c1cnc3ccccn13)C2 [Example 30, 6-(imidazo[1,2-a]pyridine-3-carbonyl)-N-(4-(trifluoromethyl)pyrimidin-2-yl)-4,5,6,7-tetrahydrothieno[2,3-c]pyridine-3-carboxamide] |
| 50 to 80 | < 25 | < 25 | CN1CCC(Oc2ccc(NC(=O)c3csc4c3CCN(C(=O)c3cnc5ccccn35)C4)cc2C(F)(F)F)C1 (stereo not drawn) [Example 31, 6-(imidazo[1,2-a]pyridine-3-carbonyl)-N-(4-((1-methylpyrrolidin-3-yl)oxy)-3-(trifluoromethyl)phenyl)-4,5,6,7-tetrahydrothieno[2,3-c]pyridine-3-carboxamide] |
| 25 to 50 | < 25 | < 25 | CN1CCC(Oc2ccc(NC(=O)c3csc4c3CCN(C(=O)c3cnc5ccccn35)C4)cc2C(F)(F)F)CC1 [Example 32, 6-(imidazo[1,2-a]pyridine-3-carbonyl)-N-(4-((1-methylpiperidin-4-yl)oxy)-3-(trifluoromethyl)phenyl)-4,5,6,7-tetrahydrothieno[2,3-c]pyridine-3-carboxamide] |
| 25 to 50 | < 25 | < 25 | CC(C)(C)c1cc(NC(=O)c2csc3c2CCN(C(=O)c2cnc4ccccn24)C3)no1 [Example 33, N-(5-(tert-butyl)isoxazol-3-yl)-6-(imidazo[1,2-a]pyridine-3-carbonyl)-4,5,6,7-tetrahydrothieno[2,3-c]pyridine-3-carboxamide] |
